The source of these data is patent US20260274814A1, “THIENYL COMPOUNDS FOR THE TREATMENT OF A CENTRAL NERVOUS SYSTEM DISEASE OR DISORDER” (Coreterra Therapeutics, Inc., priority 2023, published 2026).

Where a name gives a salt, the structure may show the parent alone. Read-outs that look alike come from different tables or passages of the source.

In the assay the test system is mice. Briefly: Neuropharmacological Assay (SmartCube): automated behavioral signature of compound-treated mice compared with a database of reference drug classes. The note with it: for minimal effective dose: Mus musculus, ip, read-out: MED; for minimal effective dose / MED: minimal effective dose: dose having 45% or more total activity in SmartCube, i.p., that dose is shown. In kind it is in vivo. An outline of the steps: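 Dose-response work typically spanned 0.3–10 mpk, widened or narrowed to obtain a full curve, with i.p. administration 15 min pre-test. MED is defined as the dose producing ≥45% total SmartCube activity; single-dose entries list the tested dose.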

Where [1] appears, read: SmartCube class probability, 3.0 mg/kg i.p., 15 min before test.
[2] abbreviates: SmartCube class probability, 3.0 mg/kg i.p., 15 min before test, hydrochloride, 3 mg/kg.
Where [3] appears, read: SmartCube class probability, 3.0 mg/kg i.p., 15 min before test, 3 mg/kg.
The mark [4] stands for this setting: SmartCube probability class, 3.0 mg/kg dose, i.p. 15 min before the behavioral test.
[5] abbreviates: SmartCube probability class, 3.0 mg/kg dose, i.p. 15 min before the behavioral test, hydrochloride, 3 mg/kg.

With `CNC1(C)CCc2c(C(F)(F)F)csc2C1.Cl` (single isomer, unassigned) [Compound 261, N, 6-dimethyl-3-(trifluoromethyl)-5,7-dihydro-4H-benzothiophen-6-amine hydrochloride], the minimal effective dose (if only one dose tested) is 3 mg/kg. In addition, under setting [1], the AG entry is reported as “ND (^ <4%)”, the AN result is on record as “ND (^ <4%)”, the AP result is “ND (^ <4%)” and the AX result is given as “ND (^ <4%)”. In addition, under setting [1], the CE result was “ND (^ <4%)”, the HL entry is recorded as “ND (^ <4%)”, the MS result is reported as “ND (^ <4%)” and the PS result is recorded as “ND (^ <4%)”. Moreover, under setting [1], the SH result is given as “ND (^ <4%)”. In addition, under setting [2], the AD entry is given as “+++ (≥49%)” and the UK result is listed as “+ (≥4%)”.
Consider `CNC1(C)CCc2c(C(F)(F)F)csc2C1.Cl` (single isomer, unassigned) [Compound 262, N, 6-dimethyl-3-(trifluoromethyl)-5,7-dihydro-4H-benzothiophen-6-amine hydrochloride], for which, under setting [1], the AG result is given as “ND (^ <4%)”, the AN result is reported as “ND (^ <4%)”, the AP result is reported as “ND (^ <4%)” and the AX entry is “ND (^ <4%)”. For the same compound, under setting [1], the CE entry is “ND (^ <4%)”, the HL result is reported as “ND (^ <4%)”, the MS result was “ND (^ <4%)” and the PS result is given as “ND (^ <4%)”. Further, under setting [1], the SH entry is listed as “ND (^ <4%)”. In addition, under setting [2], the AD result is recorded as “++ (≥24%)” and the UK result is given as “ND (^ <4%)”. For the setting “if only one dose tested, hydrochloride”, this compound showed an MED of over 3 mpk.
For the compound `CNC1CCc2scc(C3CCC3)c2C1` (single isomer, unassigned) [Compound 267, 3-cyclobutyl-N-methyl-4,5,6,7-tetrahydrobenzothiophen-5-amine hydrochloride], the minimal effective dose (if only one dose tested) is over 3 mg/kg. Moreover, under setting [1], the AD entry is on record as “ND (^ <4%)”, the AG entry is on record as “ND (^ <4%)”, the AN entry was “ND (^ <4%)” and the AP result was “ND (^ <4%)”. Under setting [1], the AX entry was “ND (^ <4%)”, the CE result is on record as “ND (^ <4%)”, the HL entry is “ND (^ <4%)” and the MS entry is “ND (^ <4%)”. Moreover, under setting [1], the PS result is on record as “ND (^ <4%)” and the SH result is reported as “ND (^ <4%)”. Besides, the UK entry under setting [2] is given as “+ (≥4%)”.
As to `CNC1CCc2scc(C3CCC3)c2C1` (single isomer, unassigned) [Compound 268, 3-cyclobutyl-N-methyl-4,5,6,7-tetrahydrobenzothiophen-5-amine hydrochloride], under setting [1], the AD entry was “ND (^ <4%)”, the AG entry is recorded as “ND (^ <4%)”, the AN result was “ND (^ <4%)” and the AP entry is listed as “ND (^ <4%)”. For the same compound, under setting [1], the AX entry is recorded as “ND (^ <4%)”, the CE result is recorded as “ND (^ <4%)”, the HL entry is listed as “ND (^ <4%)” and the MS result is on record as “ND (^ <4%)”. In addition, under setting [1], the PS result is recorded as “ND (^ <4%)” and the SH result was “ND (^ <4%)”. For the same compound, the UK result under setting [2] is given as “ND (^ <4%)”. Moreover, the MED (if only one dose tested) is on record as over 3 mpk.
Take `CC1(N2CCCC2)CCc2ccsc2C1` (single isomer, unassigned) [Compound 275, 1-(6-methyl-4,5,6,7-tetrahydrobenzo[b]thiophen-6-yl)pyrrolidine]: the minimal effective dose (if only one dose tested) stood at 3 mg/kg. Also, under setting [1], the AD result was “ND (^ <4%)”, the AG entry was “ND (^ <4%)”, the AN result is recorded as “ND (^ <4%)” and the AP result was “ND (^ <4%)”. Also, under setting [1], the CE entry is “ND (^ <4%)”, the HL entry was “ND (^ <4%)”, the MS result was “ND (^ <4%)” and the SH result is given as “ND (^ <4%)”. The UK result under setting [1] is “ND (^ <4%)”. Under setting [3], the AX result is on record as “ND (^ <4%)” and the PS entry is given as “++++ (≥74%)”.
Regarding `CC1(N2CCCC2)CCc2ccsc2C1` (single isomer, unassigned) [Compound 276, 1-(6-methyl-4,5,6,7-tetrahydrobenzo[b]thiophen-6-yl)pyrrolidine], under setting [1], the AD entry is on record as “ND (^ <4%)”, the AG result is on record as “ND (^ <4%)”, the AN result is listed as “ND (^ <4%)” and the AP result is “ND (^ <4%)”. Also, under setting [1], the CE entry was “ND (^ <4%)”, the HL result is given as “ND (^ <4%)”, the MS entry is “ND (^ <4%)” and the SH entry is “ND (^ <4%)”. Under setting [1], the UK entry is “ND (^ <4%)”. For the same compound, under setting [3], the AX entry was “++++ (≥74%)” and the PS result is “ND (^ <4%)”. The MED (if only one dose tested) was determined as 3 mpk.
With `NC1CCc2scc(C3CC3)c2C1` (single isomer, unassigned) [Compound 277, 3-cyclopropyl-4,5,6,7-tetrahydrobenzothiophen-5-amine hydrochloride], where the note is “if only one dose tested”, the minimal effective dose was over 3 mg/kg. Under setting [1], the AD result was “ND (^ <4%)”, the AG result was “ND (^ <4%)”, the AN entry is listed as “ND (^ <4%)” and the AP result is “ND (^ <4%)”. Moreover, under setting [1], the AX entry is “ND (^ <4%)”, the CE result was “ND (^ <4%)”, the HL result is reported as “ND (^ <4%)” and the MS entry was “ND (^ <4%)”. Besides, under setting [1], the PS entry is “ND (^ <4%)”, the SH result is listed as “ND (^ <4%)” and the UK result is “+ (≥4%)”.
As to `NC1CCc2scc(C3CC3)c2C1` (single isomer, unassigned) [Compound 278, 3-cyclopropyl-4,5,6,7-tetrahydrobenzothiophen-5-amine hydrochloride], under setting [1], the AD entry was “ND (^ <4%)” and the UK result is “+ (≥4%)”. The MED (if only one dose tested) was over 3 mpk.
For the compound `CCc1csc2c1CC(N)CC2` (single isomer, unassigned) [Compound 279, 3-ethyl-4,5,6,7-tetrahydrobenzothiophen-5-amine hydrochloride], the minimal effective dose (if only one dose was tested) was 3 mg/kg. Under setting [4], the AD entry is on record as “ND (^ <4%)”, the AG entry was “ND (^ <4%)”, the AN result is on record as “ND (^ <4%)” and the AP result was “ND (^ <4%)”. For the same compound, under setting [4], the AX entry is on record as “ND (^ <4%)”, the CE entry was “ND (^ <4%)”, the HL result is given as “ND (^ <4%)” and the MS result is “ND (^ <4%)”. Also, under setting [4], the PS entry was “ND (^ <4%)” and the SH entry is on record as “ND (^ <4%)”. Further, the UK result under setting [5] is on record as “++ (≥24%)”.
For the compound `CCc1csc2c1CC(N)CC2` (single isomer, unassigned) [Compound 280, 3-ethyl-4,5,6,7-tetrahydrobenzothiophen-5-amine hydrochloride], under setting [4], the AD result was “ND (^ <4%)”, the AG result is “ND (^ <4%)”, the AN entry was “ND (^ <4%)” and the AP result was “ND (^ <4%)”. Under setting [4], the AX entry is given as “ND (^ <4%)”, the CE result was “ND (^ <4%)”, the HL entry is given as “ND (^ <4%)” and the MS entry is on record as “ND (^ <4%)”. Under setting [4], the PS entry is “ND (^ <4%)” and the SH result is “ND (^ <4%)”. Moreover, the UK result under setting [5] is on record as “+++ (≥49%)”. This compound also came in with an MED (if only one dose was tested) of 3 mpk.
For the compound `CC1(N)CCc2sccc2C1` (single isomer, unassigned) [Compound 281, 5-methyl-4,5,6,7-tetrahydrobenzo[b]thiophen-5-amine hydrochloride], under “if only one dose was tested”, the minimal effective dose is 3 mg/kg. Under setting [4], the AD result was “++++ (≥74%)”, the AG entry is “ND (^ <4%)”, the AN entry is recorded as “ND (^ <4%)” and the CE result is recorded as “ND (^ <4%)”. Also, under setting [4], the HL entry is reported as “ND (^ <4%)”, the MS result was “ND (^ <4%)”, the PS result is reported as “ND (^ <4%)” and the SH entry is reported as “ND (^ <4%)”. Further, the UK entry under setting [4] is “ND (^ <4%)”. Further, under setting [5], the AP result is listed as “+ (≥4%)” and the AX entry is “+ (≥4%)”.
As to `CC1(N)CCc2sccc2C1` (single isomer, unassigned) [Compound 282, 5-methyl-4,5,6,7-tetrahydrobenzo[b]thiophen-5-amine hydrochloride], under setting [4], the AD result was “++++ (≥74%)”, the AG result is listed as “ND (^ <4%)”, the AN entry is listed as “ND (^ <4%)” and the CE result is reported as “ND (^ <4%)”. Further, under setting [4], the HL entry is recorded as “ND (^ <4%)”, the MS result is “ND (^ <4%)”, the PS entry is recorded as “ND (^ <4%)” and the SH entry is “ND (^ <4%)”. Also, the UK entry under setting [4] is listed as “ND (^ <4%)”. Further, under setting [5], the AP entry is on record as “ND (^ <4%)” and the AX result was “ND (^ <4%)”. The compound also gave an MED (if only one dose was tested) of 3 mpk.
In the case of `CC1(N2CCCC2)CCc2sccc2C1.Cl` (single isomer, unassigned) [Compound 283, 1-(5-methyl-4,5,6,7-tetrahydrobenzo[b]thiophen-5-yl)pyrrolidine hydrochloride], the minimal effective dose (if only one dose was tested) stood at 3 mg/kg. Besides, under setting [4], the AD result was “ND (^ <4%)”, the AG result is reported as “ND (^ <4%)”, the AN result is given as “ND (^ <4%)” and the AP result is given as “ND (^ <4%)”. Further, under setting [4], the AX entry is “ND (^ <4%)”, the CE result is listed as “ND (^ <4%)”, the HL result is recorded as “ND (^ <4%)” and the MS result is on record as “ND (^ <4%)”. In addition, under setting [4], the PS result is given as “ND (^ <4%)” and the SH result is listed as “ND (^ <4%)”. Under setting [5], the UK entry is recorded as “+ (≥4%)”.
